# Read-outs that look alike come from different tables or passages of the source.
# Columns and labels:
# [1] = test system: G-quadruplex in promoter region of the c-myc gene (NHE III1 segment); test: Dual luciferase analysis with plasmid pGL4.10-myc (luc2) in HGC-27 cells; format: cell-based, human; details: for inhibition at 50 µM / activity at 50 µM: Homo sapiens; for inhibition at 50 µM: HGC-27, text summary of tab. 5 (50 μmol·l^−1), read-out: inhibition of expression of firefly luciferase as compared to control; for activity at 50 µM: read-out: luciferase expression relative to control (control = 100%)
# Text: A dual luciferase analysis was used to determine the degree of stabilization of G-quadruplex in a promoter region of the c-myc gene on cellular level. Stabilization of G-quadruplex is expressed as the ratio of expression of two luciferases (firefly and Renilla) from the co-transfected vectors pGL4.10-myc (luc2) and pRL-TK (Renilla) into a cell line HGC-27 expressing c-myc protein. Expression of the reporter gene (firefly luciferase) from pGL4.10-myc vector is controlled by the c-myc regulatory region of a length of 860 by (in the range from −306 to +554). The inserted sequence contains NHE III1 segment which forms G-quadruplex [Yang, D. et al. (2010) Future Med Chem., 2, 619], and is responsible for as much as 90% of the transcriptional activity of the c-myc gene.
# Level of expression of firefly luciferase reporter gene corresponds to promoter activity of c-myc and thus to the degree of stabilization of the G-quadruplex. The signal is normalized to Renilla luciferase expression from pRL-TK vector under the control of a constitutive viral thymidine kinase (HSV-TK) promoter. The amount of Renilla luciferase expression serves as an internal control for normalization of firefly signal on transfection efficiency in the sample. Plasmids pGL4.10-myc (luc2) and pRL-TK were propagated in Escherichia coli (DH5α strain) and purified using the Qiagen Plasmid Mini and Midi kits. Cells were cultured under standard conditions and in exponential growth phase were seeded into a white 96-well microtiter plates. Transfection was carried out using a transfection reagent X-tremeGENE HP DNA in OptiMEM media for two hours. The ratio of reporter and control vector was 1:1 and the ratio of transfection reagent to the total amount of DNA was 1:1. Two hours after transfection helquats were added in a concentration of 50 μmol·l^−1. Quantity of firefly and Renilla luciferases in the samples was determined 24 hours after transfection. Dual luciferase analysis was performed using a commercially available kit (Promega, cat. No. E1960) according to manufacturer's instructions. Luminescence was measured using a luminometer EnSpire Alpha Plate Reader. The data obtained were normalized to the Renilla luciferase signal and then the values were related to control.
# [2] = test system: CCRF-CEM; test: XTT cytotoxicity/proliferation assay, CCRF-CEM; format: cell-based
# Method: To assess the antiproliferative effects of the tested substances in vitro, tumor cell line CCRF-CEM derived from acute lymphoblastic leukemia and normal (healthy) HUVEC endothelial cells from umbilical vein were used. Both of these cell lines were cultured under optimal conditions for their growth in the appropriate medium in plastic bottles or plastic Petri dishes of various sizes (TPP, BD Biosciences) at 37° C., 5% CO2 and 95% humidity. HUVEC cells were purchased from BD Biosciences. CCRF-CEM cell line was obtained from ATCC/LGC Standards (American Type Cell Collection).
# Suspension cell line CCRF-CEM is a continuous in vitro culture of acute lymphoblastic leukemia. Cell line CCRF-CEM was grown in RPMI 1640 medium (Sigma-Aldrich, cat. No. R8758) supplemented with 2 mmol·l^−1 glutamine (Invitrogen, cat. No. 35050-038), 10% fetal bovine serum (FBS; Sigma-Aldrich, cat. No. F9665), 100 IU/ml penicillin, 100 μg/ml streptomycin (Sigma-Aldrich, cat. No. P0781). Passaging was carried out 2-3 times a week. Population doubling time of CCRF-CEM cells under the used culture conditions is 20 hours.
# For testing of the sensitivity of cell lines to studied helquats XTT cytotoxicity/proliferation assay for determination of cell viability was used. This method is based on the ability of metabolically active cells to reduce the yellow tetrazolium salt XTT to orange formazan. The rate of conversion is measured as the increase in absorbance at 492 nm and is proportional to the enzymatic activity of mitochondrial dehydrogenases and thus the number of metabolically active (viable) cells. The output is the IC50 value corresponding to the concentration of the test substance that causes a decrease in the number of viable cells by half (i.e. 50% slowdown of cell division) relative to the control, untreated population. Thus it reflects the effectiveness of the test substance towards the tested cell line.
# Cells in exponential growth phase were plated into 96-well microtiter plate at a concentration of 3000 cells per well. Each well contained 90 μl of cell suspension. The following day, 10 μl of 10× concentrated test substances was added. Effect of helquats has been studied in the concentration range 1-100 μmol·l^−1 (or 1, 2.5, 5, 7.5, 10; 15; 25; 50 and 100 μmol·l^−1). In addition to the part of the plate containing the mentioned dilutions of test compounds there were always two control columns present, first column with medium alone (i.e. blank) and the second column with the cells in medium without test compounds (control). Into the blank and control wells the same volume of solvent (water) as the volume of the substances was added. After 72 hours of treatment with substances the measurement of viability was performed according to the manufacturer instructions. Briefly, into each well of a 96-well microtiter plate 50 μl of the prepared working solution of XTT (detection reagent) was added and then the microtiter plate was returned to the CO2 incubator. After 2 hours, the absorbance of each well at 492 nm (reference wavelength 690 nm) was measured using a multifunctional microplate reader (Tecan Genios, Austria).
# The results of determination of the viability of cancer and normal cells after treatment with different concentrations of test substances are summarized in Table 9. […] Each concentration of a helquat was tested in triplicates within one IC50 value determination. Each of these IC50 value determinations was repeated in at least three independent experiments. Values above 100 μmol·l^−1 were obtained by extrapolation of data measured in the concentration range 0-100 μmol·l^−1 of helquats.
# [3] = test system: HUVEC; test: XTT cytotoxicity/proliferation assay, HUVEC; format: cell-based, human
# Method: To assess the antiproliferative effects of the tested substances in vitro, tumor cell line CCRF-CEM derived from acute lymphoblastic leukemia and normal (healthy) HUVEC endothelial cells from umbilical vein were used. Both of these cell lines were cultured under optimal conditions for their growth in the appropriate medium in plastic bottles or plastic Petri dishes of various sizes (TPP, BD Biosciences) at 37° C., 5% CO2 and 95% humidity. HUVEC cells were purchased from BD Biosciences. CCRF-CEM cell line was obtained from ATCC/LGC Standards (American Type Cell Collection). Normal human endothelial cells from the umbilical vein are adherent cells, which were grown in plastic Petri dishes coated with collagen I. The culture medium (E-STIMTM; BD Biosciences, cat. […] Then, 5 ml of complete culture media E-STIM™ was added and the cells were centrifuged (180×g, 7 minutes), resuspended and transferred in a desired amount in a new Petri dish with fresh medium. In the experiments cells between passages 3 and 8 (after thawing) were used. Population doubling time of HUVEC cells under the used culture conditions is 38 hours. For testing of the sensitivity of cell lines to studied helquats XTT cytotoxicity/proliferation assay for determination of cell viability was used. This method is based on the ability of metabolically active cells to reduce the yellow tetrazolium salt XTT to orange formazan. The rate of conversion is measured as the increase in absorbance at 492 nm and is proportional to the enzymatic activity of mitochondrial dehydrogenases and thus the number of metabolically active (viable) cells. […] Thus it reflects the effectiveness of the test substance towards the tested cell line. Cells in exponential growth phase were plated into 96-well microtiter plate at a concentration of 3000 cells per well. Each well contained 90 μl of cell suspension. The following day, 10 μl of 10× concentrated test substances was added. […] In addition to the part of the plate containing the mentioned dilutions of test compounds there were always two control columns present, first column with medium alone (i.e. blank) and the second column with the cells in medium without test compounds (control). Into the blank and control wells the same volume of solvent (water) as the volume of the substances was added. After 72 hours of treatment with substances the measurement of viability was performed according to the manufacturer instructions. Briefly, into each well of a 96-well microtiter plate 50 μl of the prepared working solution of XTT (detection reagent) was added and then the microtiter plate was returned to the CO2 incubator. After 2 hours, the absorbance of each well at 492 nm (reference wavelength 690 nm) was measured using a multifunctional microplate reader (Tecan Genios, Austria).
# [4] = helquat 50 μmol · l^−1, HGC-27, firefly normalized to Renilla, 24 hours after transfection
# [5] = Homo sapiens, CCRF-CEM, 72 hours of treatment, read-out: IC50 CCRF CEM
# [6] = Homo sapiens, CCRF-CEM, 72 hours, summary of table 9, read-out: concentrations toxic towards CCRF-CEM cells
# [7] = Homo sapiens, HUVEC, 72 hours of treatment, values above 100 μmol·l^−1 obtained by extrapolation, read-out: IC50 HUVEC
# [8] = Homo sapiens, HUVEC, 72 hours, summary of table 9, read-out: concentrations non-toxic towards HUVEC cells
Compound,inhibition at 50 µM [1] [%],"activity at 50 µM [1, 4] [%]","IC50 [2, 5] [µM]","IC50 [2, 6] [µM]","IC50 [3, 7] [µM]","IC50 [3, 8] [µM]",also measured
"2,13-bis((E)-2-(5-bromothiophen-2-yl)vinyl-8,9-dimethyl-6,7,10,11-tetrahydrodipyrido[2,1-a: 1′,2′-k][2,9]phenanthroline-5,12-diium trifluoromethanesulfonate [MJB-C5-3]",–,–,–,–,–,–,"luciferase expression relative to control (control = 100%) [1, 4]: 65%"
"19-((E)-2-(7-methyl-1H-indol-3-yl)vinyl)-6,7,8,11,12,13-hexahydropyrido[1′,2′″:1″,2″]azepino[4″,3″:5′,6′]benzo[1′,2′:3,4]azepino[1,2-a]quinoline-5,14-diium trifluoromethanesulfonate [MSC-C10-31]",–,–,–,–,–,–,"IC50 ([2]; 72 hours of treatment, read-out: IC50 CCRF CEM): 11 to 25 µM; IC50 ([3]; 72 hours of treatment, values above 100 μmol·l^−1 obtained by extrapolation, read-out: IC50 HUVEC): ≥ 51 µM"
"C(=C\c1cc(/C=C/c2ccsc2)[n+]2c(c1)-c1c(ccc3c1-c1cccc[n+]1CC3)CC2)/c1ccsc1 [HTA-C5-9, 2,4-bis((E)-2-(thiophen-3-yl)vinyl)-6,7,10,11-tetrahydrodipyrido[2,1-a:1′,2′-k][2,9]phenanthroline-5,12-diium trifluoromethanesulfonate]",> 10,85,–,–,–,–,–
"Cc1c(C)c2c(c3c1CC[n+]1ccc(/C=C/c4c[nH]c5ccc(Br)cc45)cc1-3)-c1c3ccccc3cc[n+]1CC2 [MJA-C9-30, (E)-13-(2-(5-bromo-1H-indol-3-yl)vinyl)-6,7-dimethyl-4,5,8,9-tetrahydroisoquinolino[1,2-a]pyrido[1,2-k][2,9]phenanthroline-3,10-diium trifluoromethanesulfonate]",> 40,55,–,–,–,–,–
"Cc1c(C)c2c(c3c1CC[n+]1ccc(/C=C/c4ccc5oc6ccccc6c5c4)cc1-3)-c1c3ccccc3cc[n+]1CC2 [MJA-C13-22, (E)-13-(2-(dibenzo[b,d]furan-2-yl)vinyl)-6,7-dimethyl-4,5,8,9-tetrahydroisoquinolino[1,2-a]pyrido[1,2-k][2,9]phenanthroline-3,10-diium trifluoromethanesulfonate]",–,–,≤ 10,< 25,≥ 100,> 100,–
"C(=C\c1cc(-c2ccccc2)cs1)/c1cc[n+]2c(c1)-c1c(ccc3c1-c1c4ccccc4cc[n+]1CC3)CC2 [MSB-C11-7, (E)-13-(2-(4-phenylthiophen-2-yl)vinyl)-4,5,8,9-tetrahydroisoquinolino[1,2-a]pyrido[1,2-k][2,9]phenanthroline-3,10-diium trifluoromethanesulfonate]",–,–,11 to 25,< 25,≥ 100,> 100,–
"C(=C\c1c[nH]c2c1ccc1ccccc12)/c1cc[n+]2c(c1)-c1c(ccc3c1-c1c4ccccc4cc[n+]1CC3)CC2 [MSB-C13-16, (E)-13-(2-(1H-benzo[g]indol-3-yl)vinyl)-4,5,8,9-tetrahydroisoquinolino[1,2-a]pyrido[1,2-k][2,9]phenanthroline-3,10-diium trifluoromethanesulfonate]",–,–,11 to 25,–,≥ 51,–,–
"C(=C\c1cc2ccccc2[n+]2c1-c1c(ccc3c1-c1cccc[n+]1CCC3)CCC2)/c1ccc2[nH]ccc2c1 [MSC-C9-10, 19-((E)-2-(1H-indol-5-yl)vinyl)-6,7,8,11,12,13-hexahydropyrido[1′″,2′″:1″,2″]azepino[4″,3″:5′,6′]benzo[1′,2′:3,4]azepino[1,2-a]quinoline-5,14-diium trifluoromethanesulfonate]",> 40,56,≤ 10,< 25,≥ 100,> 100,–
"Cc1c(C)c2c(c3c1CC[n+]1ccc4ccccc4c1-3)-c1cccc(/C=C/c3cccc4c3sc3ccccc34)[n+]1CC2 [VDJA-C13-20, (E)-11-(2-(dibenzo[b,d]thiophen-4-yl)vinyl)-6,7-dimethyl-4,5,8,9-tetrahydroisoquinolino[1,2-a]pyrido[1,2-k][2,9]phenanthroline-3,10-diium trifluoromethanesulfonate]",–,–,11 to 25,< 25,≥ 100,> 100,–
